According to ChEMBL document CHEMBL4308841, “Synthesis, in vitro antiproliferative activity, and kinase inhibitory effects of pyrazole-containing diarylureas and diarylamides” (Eur J Med Chem, 2018):

What was measured:
[1] = system: CAKI-1; assay: Growth inhibition of human Caki1 cells assessed as cell growth at 0.01 uM incubated for 48 hrs by sulforhodamine B assay relative to control; assay type: functional; details: CAKI-1, 48 h, read-out: Activity
[2] = system: SR; assay: Growth inhibition of human SR cells assessed as cell growth at 1 uM incubated for 48 hrs by sulforhodamine B assay relative to control; assay type: functional; details: read-out: Activity
[3] = system: NCI-H23; assay: Growth inhibition of human NCI-H23 cells assessed as cell growth at 0.01 uM incubated for 48 hrs by sulforhodamine B assay relative to control; assay type: functional; details: NCI-H23, 48 h, read-out: Activity
[4] = system: MDA-MB-468; assay: Growth inhibition of human MDA-MB-468 cells assessed as cell growth at 0.1 uM incubated for 48 hrs by sulforhodamine B assay relative to control; assay type: functional; details: MDA-MB-468, 48 h, read-out: Activity
[5] = system: CCRF-CEM; assay: Growth inhibition of human CCRF-CEM cells assessed as cell growth at 0.1 uM incubated for 48 hrs by sulforhodamine B assay relative to control; assay type: functional; details: read-out: Activity
[6] = system: CCRF-CEM; assay: Growth inhibition of human CCRF-CEM cells assessed as cell growth at 1 uM incubated for 48 hrs by sulforhodamine B assay relative to control; assay type: functional; details: read-out: Activity
[7] = system: CAKI-1; assay: Growth inhibition of human Caki1 cells assessed as cell growth at 0.1 uM incubated for 48 hrs by sulforhodamine B assay relative to control; assay type: functional; details: CAKI-1, 48 h, read-out: Activity
[8] = system: MCF7; assay: Growth inhibition of human MCF7 cells assessed as cell growth at 100 uM incubated for 48 hrs by sulforhodamine B assay relative to control; assay type: functional; details: MCF7, 48 h, read-out: Activity
[9] = system: SF-295; assay: Growth inhibition of human SF295 cells assessed as cell growth at 1 uM incubated for 48 hrs by sulforhodamine B assay relative to control; assay type: functional; details: SF-295, 48 h, read-out: Activity
[10] = system: IGROV-1; assay: Growth inhibition of human IGROV1 cells assessed as cell growth at 0.1 uM incubated for 48 hrs by sulforhodamine B assay relative to control; assay type: functional; details: IGROV-1, 48 h, read-out: Activity
[11] = system: SF-268; assay: Growth inhibition of human SF268 cells assessed as cell growth at 0.01 uM incubated for 48 hrs by sulforhodamine B assay relative to control; assay type: functional; details: SF-268, 48 h, read-out: Activity
[12] = system: MCF7; assay: Growth inhibition of human MCF7 cells assessed as cell growth at 0.1 uM incubated for 48 hrs by sulforhodamine B assay relative to control; assay type: functional; details: MCF7, 48 h, read-out: Activity
[13] = system: OVCAR-8; assay: Growth inhibition of human OVCAR8 cells incubated for 48 hrs by sulforhodamine B assay; assay type: functional, cell-based; details: OVCAR-8, 48 h
[14] = system: DU-145; assay: Growth inhibition of human DU145 cells assessed as cell growth at 0.01 uM incubated for 48 hrs by sulforhodamine B assay relative to control; assay type: functional; details: DU-145, 48 h, read-out: Activity
[15] = system: OVCAR-4; assay: Growth inhibition of human OVCAR4 cells assessed as cell growth at 0.01 uM incubated for 48 hrs by sulforhodamine B assay relative to control; assay type: functional; details: OVCAR-4, 48 h, read-out: Activity
[16] = system: LOX IMVI; assay: Growth inhibition of human LOXIMVI cells assessed as cell growth at 0.01 uM incubated for 48 hrs by sulforhodamine B assay relative to control; assay type: functional; details: read-out: Activity
[17] = system: 786-0; assay: Growth inhibition of human 786-0 cells assessed as cell growth at 0.01 uM incubated for 48 hrs by sulforhodamine B assay relative to control; assay type: functional; details: 786-0, 48 h, read-out: Activity
[18] = system: SK-OV-3; assay: Growth inhibition of human SKOV3 cells assessed as cell growth at 0.01 uM incubated for 48 hrs by sulforhodamine B assay relative to control; assay type: functional; details: SK-OV-3, 48 h, read-out: Activity
[19] = system: K562; assay: Growth inhibition of human K562 cells incubated for 48 hrs by sulforhodamine B assay; assay type: functional, cell-based; details: K562, 48 h
[20] = system: NCI-H322M; assay: Growth inhibition of human NCI-H322M cells assessed as cell growth at 0.1 uM incubated for 48 hrs by sulforhodamine B assay relative to control; assay type: functional; details: read-out: Activity
[21] = system: PC-3; assay: Growth inhibition of human PC3 cells assessed as cell growth at 1 uM incubated for 48 hrs by sulforhodamine B assay relative to control; assay type: functional; details: PC-3, 48 h, read-out: Activity
[22] = system: MCF7; assay: Growth inhibition of human MCF7 cells assessed as cell growth at 1 uM incubated for 48 hrs by sulforhodamine B assay relative to control; assay type: functional; details: MCF7, 48 h, read-out: Activity
[23] = system: NCI-H23; assay: Growth inhibition of human NCI-H23 cells assessed as cell growth at 100 uM incubated for 48 hrs by sulforhodamine B assay relative to control; assay type: functional; details: NCI-H23, 48 h, read-out: Activity
[24] = system: ACHN; assay: Growth inhibition of human ACHN cells assessed as cell growth at 0.1 uM incubated for 48 hrs by sulforhodamine B assay relative to control; assay type: functional; details: read-out: Activity
[25] = system: Hs-578T; assay: Growth inhibition of human Hs578T cells incubated for 48 hrs by sulforhodamine B assay; assay type: functional, cell-based
[26] = system: ACHN; assay: Growth inhibition of human ACHN cells assessed as cell growth at 100 uM incubated for 48 hrs by sulforhodamine B assay relative to control; assay type: functional; details: read-out: Activity
[27] = system: A498; assay: Growth inhibition of human A498 cells assessed as cell growth at 100 uM incubated for 48 hrs by sulforhodamine B assay relative to control; assay type: functional; details: A498, 48 h, read-out: Activity
[28] = system: SN12C; assay: Growth inhibition of human SN12C cells assessed as cell growth at 0.01 uM incubated for 48 hrs by sulforhodamine B assay relative to control; assay type: functional; details: read-out: Activity
[29] = system: NCI-H226; assay: Growth inhibition of human NCI-H226 cells assessed as cell growth at 0.01 uM incubated for 48 hrs by sulforhodamine B assay relative to control; assay type: functional; details: NCI-H226, 48 h, read-out: Activity
[30] = system: Hs-578T; assay: Growth inhibition of human Hs578T cells assessed as cell growth at 0.1 uM incubated for 48 hrs by sulforhodamine B assay relative to control; assay type: functional; details: read-out: Activity
[31] = system: UO-31; assay: Growth inhibition of human UO31 cells assessed as cell growth at 0.01 uM incubated for 48 hrs by sulforhodamine B assay relative to control; assay type: functional; details: UO-31, 48 h, read-out: Activity
[32] = system: CCRF-CEM; assay: Growth inhibition of human CCRF-CEM cells incubated for 48 hrs by sulforhodamine B assay; assay type: functional, cell-based
[33] = system: M14; assay: Growth inhibition of human M14 cells assessed as cell growth at 0.01 uM incubated for 48 hrs by sulforhodamine B assay relative to control; assay type: functional; details: M14, 48 h, read-out: Activity
[34] = read-out: LC50 (the source's name)
[35] = read-out: pLC50 (the source's name) (converted)

SMILES: COc1cc(Cl)cc(-c2nn(-c3cccc(NC(=O)c4cccc(C(F)(F)F)c4)c3)cc2-c2ccncc2)c1
- growth at 0.01 µM [1]: 95%
- growth at 1 µM [2]: 58%
- growth at 0.01 µM [3]: 93%
- growth at 0.1 µM [4]: 85%
- growth at 0.1 µM [5]: 92%
- growth at 1 µM [6]: 53%
- growth at 0.1 µM [7]: 94%
- growth at 100 µM [8]: 38%
- growth at 1 µM [9]: 57%
- growth at 0.1 µM [10]: 100%
- growth at 0.01 µM [11]: 101%
- growth at 0.1 µM [12]: 92%
- GI50 ([13]; read-out: GI50): 5.58 µM
- CC50 [13, 34]: > 100 µM
- TGI ([13]; read-out: TGI): > 100 µM
- GI50 ([13]; read-out: pGI50 (converted)): 6.92 µM
- CC50 [13, 35]: > 100 µM
- TGI ([13]; read-out: pTGI (converted)): > 100 µM
- growth at 0.01 µM [14]: 109%
- growth at 0.01 µM [15]: 106%
- growth at 0.01 µM [16]: 100%
- growth at 0.01 µM [17]: 99%
- growth at 0.01 µM [18]: 102%
- GI50 ([19]; read-out: GI50): 4590 nM
- LC50 ([19]; read-out: LC50): > 100 µM
- TGI ([19]; read-out: TGI): > 100 µM
- GI50 ([19]; read-out: pGI50 (converted)): 4680 nM
- LC50 ([19]; read-out: pLC50 (converted)): > 100 µM
- TGI ([19]; read-out: pTGI (converted)): > 100 µM
- growth at 0.1 µM [20]: 95%
- growth at 1 µM [21]: 73%
- growth at 1 µM [22]: 57%
- growth at 100 µM [23]: 27%
- growth at 0.1 µM [24]: 98%
- GI50 ([25]; read-out: GI50): > 100000 nM
- CC50 [25, 34]: > 100 µM
- TGI ([25]; read-out: TGI): > 100 µM
- GI50 ([25]; read-out: pGI50 (converted)): > 100000 nM
- CC50 [25, 35]: > 100 µM
- TGI ([25]; read-out: pTGI (converted)): > 100 µM
- growth at 100 µM [26]: 40%
- growth at 100 µM [27]: 59%
- growth at 0.01 µM [28]: 99%
- growth at 0.01 µM [29]: 95%
- growth at 0.1 µM [30]: 89%
- growth at 0.01 µM [31]: 58%
- GI50 ([32]; read-out: GI50): 4380 nM
- CC50 [32, 34]: > 100 µM
- TGI ([32]; read-out: TGI): > 100 µM
- GI50 ([32]; read-out: pGI50 (converted)): 4370 nM
- CC50 [32, 35]: > 100 µM
- TGI ([32]; read-out: pTGI (converted)): > 100 µM
- growth at 0.01 µM [33]: 101%

SMILES: O=C(Nc1cccc(-n2cc(-c3ccncc3)c(-c3cc(O)cc(Cl)c3)n2)c1)c1ccc(N2CCOCC2)c(C(F)(F)F)c1
- growth at 0.01 µM [1]: 98%
- growth at 1 µM [2]: 9%
- growth at 0.01 µM [3]: 105%
- growth at 0.1 µM [4]: 54%
- growth at 0.1 µM [5]: 95%
- growth at 1 µM [6]: 34%
- growth at 0.1 µM [7]: 93%
- growth at 100 µM [8]: 14%
- growth at 1 µM [9]: 39%
- growth at 0.1 µM [10]: 103%
- growth at 0.01 µM [11]: 101%
- growth at 0.1 µM [12]: 87%
- GI50 ([13]; read-out: GI50): 15.4 µM
- CC50 [13, 34]: > 100 µM
- TGI ([13]; read-out: TGI): > 100 µM
- GI50 ([13]; read-out: pGI50 (converted)): 1.62 µM
- CC50 [13, 35]: > 100 µM
- TGI ([13]; read-out: pTGI (converted)): > 100 µM
- growth at 0.01 µM [14]: 100%
- growth at 0.01 µM [15]: 100%
- growth at 0.01 µM [16]: 100%
- growth at 0.01 µM [17]: 102%
- growth at 0.01 µM [18]: 102%
- GI50 ([19]; read-out: GI50): 554 nM
- LC50 ([19]; read-out: LC50): > 100 µM
- TGI ([19]; read-out: TGI): 40.8 µM
- GI50 ([19]; read-out: pGI50 (converted)): 562 nM
- LC50 ([19]; read-out: pLC50 (converted)): > 100 µM
- TGI ([19]; read-out: pTGI (converted)): 4.9 µM
- growth at 0.1 µM [20]: 97%
- growth at 1 µM [21]: 51%
- growth at 1 µM [22]: 82%
- growth at 100 µM [23]: -12%
- growth at 0.1 µM [24]: 99%
- GI50 ([25]; read-out: GI50): 2940 nM
- CC50 [25, 34]: > 100 µM
- TGI ([25]; read-out: TGI): > 100 µM
- GI50 ([25]; read-out: pGI50 (converted)): 2950 nM
- CC50 [25, 35]: > 100 µM
- TGI ([25]; read-out: pTGI (converted)): > 100 µM
- growth at 100 µM [26]: -20%
- growth at 100 µM [27]: -12%
- growth at 0.01 µM [28]: 94%
- growth at 0.01 µM [29]: 98%
- growth at 0.1 µM [30]: 90%
- growth at 0.01 µM [31]: 85%
- GI50 ([32]; read-out: GI50): 543 nM
- CC50 [32, 34]: > 100 µM
- TGI ([32]; read-out: TGI): > 100 µM
- GI50 ([32]; read-out: pGI50 (converted)): 562 nM
- CC50 [32, 35]: > 100 µM
- TGI ([32]; read-out: pTGI (converted)): > 100 µM
- growth at 0.01 µM [33]: 95%
